Reference: patent US20140259191A1, “FISH ANESTHETIC AND METHOD” (AQUA-MOR TECHNOLOGIES LTD., priority 2011, published 2014)

What was measured:
cyprinus carpio = experiment: Three-hour sedation of carp with 30 ppm linalool; type: in vivo
Experimental: Three cyprinus carpio of 140 g average weight, each in a tank of 20 L water at 25° C., were exposed to linalool, added to each tank in a formulation containing 20 wt. % linalool, 5 wt. % Alkamuls 14/R (a non-ionic surfactant added as an emulsifier), 70 wt. % propylene glycol and 5 wt. % ethanol to a linalool concentration of 30 ppm in the water. Specimens were observed every 30 minutes after addition of linalool. […] After removal to a tank of untreated water, each of the fish returned to their initial state within five minutes.

carp = experiment: Carp exposed to 75 ppm linalool for varying amounts of time, recovery observed; type: in vivo, Cyprinus carpio; design: key to recovery state at 13 minutes after introduction of linalool / recovery state at 15 minutes after introduction of linalool / recovery state at 16 minutes after introduction of linalool / recovery state at 17 minutes after introduction of linalool / recovery state at 19 minutes after introduction of linalool / recovery state at 20 minutes after introduction of linalool / recovery state at 21 minutes after introduction of linalool / recovery state at 22 minutes after introduction of linalool / recovery state at 24 minutes after introduction of linalool / recovery state at 25 minutes after introduction of linalool / recovery state at 27 minutes after introduction of linalool / recovery state at 28 minutes after introduction of linalool / recovery state at 29 minutes after introduction of linalool / recovery state at 38 minutes after introduction of linalool / recovery state at 39 minutes after introduction of linalool / recovery state at 40 minutes after introduction of linalool / recovery state at 70 minutes after introduction of linalool / recovery state at 77 minutes after introduction of linalool / recovery state at 78 minutes after introduction of linalool: RT = removed to recovery tank; PR = partial recovery; TR = total recovery
Experimental: 16 healthy carp (Cyprinus carpio), average weight of 150 g, maintained in 6 liter tanks, were each exposed to 75 ppm of linalool (using the same formulation described in Example 1, 45 g of which were mixed into each treatment tank) for varying amounts of time. Pairs of fish were introduced to linalool simultaneously and then removed to recovery tanks at various times: 3, 8, 12, 15, 20, 30, 40 and 50 minutes after introduction, and each fish's recovery was observed over the course of two consecutive days. Complete anesthesia was achieved after 5 minutes of exposure.

Guppy fish = experiment: Anesthesia of guppy fish by linalool or Ho Wood oil added to tank water; type: in vivo
Experimental: A one year old koi fish of body length 11 cm and which appeared to be healthy was placed in a 4 liter tank containing water at 25° C. and in which the water was circulated by means of aeration. A liquid a mixture containing 1 wt. % synthetic linalool (1 wt. % linalool, 5 wt. % 14R, 2 wt. % AF80 and 92 wt. % water) was added to the tank and manually mixed with the water so that the concentration of linalool in the water was 50 ppm. This was regarding as the starting time of the experiment; thereafter, observations were made regularly to determine the behavior of the fish in water. This continued until no response to external stimulation and complete loss of equilibrium were observed, at which point the fish was transferred to a recovery tank containing fresh water. The fish was placed near the air pump, and the time until the fish again swam and responded normally to external stimulation was recorded.
To a one liter tank containing five guppy fingerlings 21-30 days old of weight 0.010-0.014 g and body length 0.5 cm in water at 30° C. and pH 7 was added a formulation containing 92.5% linalool. The formulation was added to the water to a linalool concentration of 50 ppm in the water. The fish became relaxed 5 minutes after addition of linalool and after 7 minutes were completely anesthetized. At 10 minutes the fish were removed to a recovery tank with fresh water. After two minutes in the recovery tank the fish resumed normal behavior.
The experiment of Example 21 was repeated, using four 10-month old Guppy fish of respective body lengths 3, 3.5, 4 and 3 cm, and adding the Ho Wood oil to a linalool concentration of 50 ppm in the water. […] At 14.5 minutes the fish were removed to a recovery tank with clean water. After two minutes in the recovery tank they swam around and appeared to have resumed normal activity.
The experiment of Example 21 was repeated, using four 10-month old Guppy fish of respective body lengths 4, 3.5, 3.5 and 3 cm, and adding the Ho Wood oil to a linalool concentration in the water of 75 ppm instead 50 ppm. […]

[1] = carp 150 g, fish still exposed (nos. 3-16)
[2] = carp, removed to recovery tank at 8 minutes (fish nos. 3, 4)
[3] = carp, removed to recovery tank at 12 minutes (fish nos. 5, 6)
[4] = carp, removed to recovery tank at 15 minutes (fish nos. 7, 8)
[5] = carp, removed to recovery tank at 20 minutes (fish nos. 9, 10)
[6] = carp, removed to recovery tank at 30 minutes (fish nos. 11, 12)
[7] = carp, removed to recovery tank at 40 minutes (fish nos. 13, 14)
[8] = Example 17: five guppy fingerlings, 50 ppm linalool (formulation containing 92.5% linalool), 30° C., pH 7

C=CC(C)(O)CCC=C(C)C (centres unmarked) [linalool]
time in untreated water until return to initial state (cyprinus carpio; Example 28: carp 140 g, after three-hour exposure): five
handling state of the fish (cyprinus carpio; Example 28: three carp 140 g, 25° C., at 30 minutes after exposure and for the duration of the three-hour exposure): easy to handle
time of exposure until complete anesthesia (carp; Example 8: carp 150 g): 5 min
observed state at 5 minutes after introduction of linalool (carp; carp 150 g): Loss of reflex reactivity (stage 5 anesthesia)
observed state at 10 minutes after introduction of linalool (carp; carp 150 g): opercular movements slow and irregular
observed state at 1 minute after introduction of linalool (carp; carp 150 g, all fish): Total loss of equilibrium
observed state at 3 minutes after introduction of linalool (carp; [1]): Total loss of reactivity to all but strong external stimuli
observed state at 4 minutes after introduction of linalool (carp; [1]): slow but regular opercular rate
recovery state at 13 minutes after introduction of linalool (carp; carp, removed to recovery tank at 3 minutes (fish nos. 1, 2)): TR
recovery state at 15 minutes after introduction of linalool (carp; [2]): PR
recovery state at 16 minutes after introduction of linalool (carp; [2]): TR and PR
recovery state at 17 minutes after introduction of linalool (carp; [2]): TR
recovery state at 19 minutes after introduction of linalool (carp; [3]): PR
recovery state at 20 minutes after introduction of linalool (carp; [3]): PR
recovery state at 21 minutes after introduction of linalool (carp; [3]): TR
recovery state at 22 minutes after introduction of linalool (carp; [3]): TR
recovery state at 24 minutes after introduction of linalool (carp; [4]): PR
recovery state at 25 minutes after introduction of linalool (carp; [4]): TR
recovery state at 28 minutes after introduction of linalool (carp; [4]): PR
recovery state at 29 minutes after introduction of linalool (carp; [4]): TR
recovery state at 27 minutes after introduction of linalool (carp; [5]): PR
recovery state at 28 minutes after introduction of linalool (carp; [5]): TR
recovery state at 38 minutes after introduction of linalool (carp; [6]): PR
recovery state at 39 minutes after introduction of linalool (carp; [6]): TR and PR
recovery state at 40 minutes after introduction of linalool (carp; [6]): TR
recovery state at 70 minutes after introduction of linalool (carp; [7]): TR
recovery state at 77 minutes after introduction of linalool (carp; [7]): PR
recovery state at 78 minutes after introduction of linalool (carp; [7]): TR
recovery of fish nos. 15 and 16 (carp; carp, removed to recovery tank at 50 minutes): Fish nos. 15 and 16 never recovered.
time after addition of linalool until fish became relaxed (Guppy fish; [8]): 5 min
time until fish completely anesthetized (Guppy fish; [8]): 7 min
time in recovery tank until normal behavior resumed (Guppy fish; Example 17: guppy fingerlings, 50 ppm linalool, removed at 10 minutes): two
